Assay [1] addresses Coagulation factor X (Homo sapiens) (UniProt P00742). Nature of the assay: Binding ability to coagulation factor Xa, expressed as apparent association constant.
Assay [2] is filed under the species Homo sapiens. Nature of the assay: Concentration required to double the time of clot formation in reconstituted human plasma, using prothrombin time assay. It is filed as functional, organism-based.

Molecules are shown by their SMILES.

Chain of Coagulation factor X (Homo sapiens) (P00742 41-179 limits assumed): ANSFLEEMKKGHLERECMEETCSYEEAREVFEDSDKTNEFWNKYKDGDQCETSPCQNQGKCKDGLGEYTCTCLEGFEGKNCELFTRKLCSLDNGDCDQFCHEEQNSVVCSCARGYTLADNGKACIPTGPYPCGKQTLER
Chain of Coagulation factor X (Homo sapiens) (P00742 235-488 limits assumed): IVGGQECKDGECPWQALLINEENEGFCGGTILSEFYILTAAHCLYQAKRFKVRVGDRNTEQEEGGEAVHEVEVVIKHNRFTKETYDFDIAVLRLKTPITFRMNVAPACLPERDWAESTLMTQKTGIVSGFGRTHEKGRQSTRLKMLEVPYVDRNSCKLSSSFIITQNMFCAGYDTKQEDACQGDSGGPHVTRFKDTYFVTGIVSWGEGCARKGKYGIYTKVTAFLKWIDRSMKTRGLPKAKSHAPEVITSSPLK

With `COc1ccc(C(=O)NC(C(=O)NCC2CCN(C(C)C)CC2)c2ccccc2OC)cc1` (stereo not drawn), the K ass in assay [1] is 1.9e+06 l M-1.

For `COc1ccc(C(=O)NC(C(=O)NCC2CCN(C(C)C)CC2)c2ccccc2N(C)C)cc1` (stereo not drawn), the K ass in assay [1] was 1.1e+06 l M-1.

Turning to `COc1ccc(C(=O)NC(C(=O)NCC2CCN(C(C)C)CC2)c2ccco2)cc1` (stereo not drawn), the K ass in assay [1] is 360000 l M-1.

Regarding `COc1ccc(C(=O)NC(C(=O)NCC2CCN(C(C)C)CC2)c2ccccc2)cc1` (stereo not drawn), the K ass in assay [1] is 710000 l M-1.

Take `O=C(NC(C(=O)NCC1CCN(C2CCCC2)CC1)c1ccc2ccccc2c1)c1ccc2c(Cl)c[nH]c2c1` (stereo not drawn): the K ass in assay [1] is 7.9e+07 l M-1. Also, in assay [2], the Concentration came to 4.1 µM.

As to `O=C(NC(C(=O)NCC1CCN(C2CCCC2)CC1)c1nccs1)c1ccc2c(Cl)c[nH]c2c1` (stereo not drawn), the K ass in assay [1] was 3.8e+08 l M-1. In assay [2], this compound gave a Concentration of 0.79 µM.

For `COc1ccc(C(=O)NC(C(=O)NCC2CCN(C(C)C)CC2)c2ccccc2N)cc1` (stereo not drawn), the K ass in assay [1] is 750000 l M-1.

On to `COc1ccc(C(=O)NC(C(=O)NCC2CCN(C(C)C)CC2)c2ccccc2[N+](=O)[O-])cc1` (stereo not drawn), for which the K ass in assay [1] is 4.2e+06 l M-1.

On to `COc1ccc(C(=O)NC(C(=O)NCC2CCN(C(C)C)CC2)c2ccccc2OCc2ccccc2)cc1` (stereo not drawn), for which, in assay [1], the K ass is 2.6e+06 l M-1.

With `COc1ccc(C(=O)NC(C(=O)NCC2CCN(C(C)C)CC2)c2cnc3ccccc3c2)cc1` (stereo not drawn), the K ass in assay [1] is 50000 l M-1.

For `COc1ccc(C(=O)NC(C(=O)NCC2CCN(C(C)C)CC2)c2ncc[nH]2)cc1` (stereo not drawn), in assay [1], the K ass is 210000 l M-1.

With `COc1ccc(C(=O)NC(C(=O)NCC2CCN(C(C)C)CC2)c2ccccc2Cl)cc1` (stereo not drawn), the K ass in assay [1] is 5.1e+06 l M-1.

For `COc1ccc(C(=O)NC(C(=O)NCC2CCN(C(C)C)CC2)c2ccccc2O)cc1` (stereo not drawn), the K ass in assay [1] was 1.3e+06 l M-1.

For `O=C(NC(C(=O)NCC1CCN(C2CCCC2)CC1)c1cccc2ccccc12)c1ccc2c(Cl)c[nH]c2c1` (stereo not drawn), the K ass in assay [1] is 2.5e+08 l M-1. Moreover, in assay [2], the Concentration is 3.8 µM.

As to `COc1ccc(C(=O)NC(C(=O)NCC2CCN(C(C)C)CC2)c2ccccc2Br)cc1` (stereo not drawn), the K ass in assay [1] was 4.6e+06 l M-1.

As to `COc1ccc(C(=O)NC(C(=O)NCC2CCN(C(C)C)CC2)c2ccccc2SC)cc1` (stereo not drawn), in assay [1], the K ass is 2.9e+06 l M-1.

As for `COc1ccc(C(=O)NC(C(=O)NCC2CCN(C(C)C)CC2)c2ccoc2)cc1` (stereo not drawn), in assay [1], the K ass is 200000 l M-1.

`COc1ccc(C(=O)NC(C(=O)NCC2CCN(C(C)C)CC2)c2ccsc2)cc1` (stereo not drawn): the K ass in assay [1] was 880000 l M-1.

In the case of `COc1ccc(C(=O)NC(C(=O)NCC2CCN(C(C)C)CC2)c2ccccc2SC(C)(C)C)cc1` (stereo not drawn), the K ass in assay [1] was 1.7e+06 l M-1.

On to `CCOc1ccccc1C(NC(=O)c1ccc(OC)cc1)C(=O)NCC1CCN(C(C)C)CC1` (stereo not drawn), for which the K ass in assay [1] was 2.8e+06 l M-1.

In the case of `COc1ccc(C(=O)NC(C(=O)NCC2CCN(C(C)C)CC2)c2ccccc2Oc2ccccc2)cc1` (stereo not drawn), the K ass in assay [1] was 1.3e+06 l M-1.

In the case of `O=C(N[C@@H](C(=O)NCC1CCN(C2CCCC2)CC1)c1ccccc1)c1ccc2c(Cl)c[nH]c2c1`, the K ass in assay [1] is 8.2e+08 l M-1.

`COc1ccc(C(=O)NC(C(=O)NCC2CCN(C(C)C)CC2)c2ccnc3ccccc23)cc1` (stereo not drawn): the K ass in assay [1] is 1.3e+06 l M-1.

As for `COc1ccc(C(=O)NC(C(=O)NCC2CCN(C(C)C)CC2)c2ccccc2OC(F)(F)F)cc1` (stereo not drawn), in assay [1], the K ass was 4.1e+06 l M-1.

For the compound `COc1ccc(C(=O)NC(C(=O)NCC2CCN(C(C)C)CC2)c2ccccc2C(F)(F)F)cc1` (stereo not drawn), the K ass in assay [1] was 3.1e+06 l M-1.

As to `O=C(NC(C(=O)NCC1CCN(C2CCCC2)CC1)c1cnc2ccccc2c1)c1ccc2c(Cl)c[nH]c2c1` (stereo not drawn), the K ass in assay [1] was 200000 l M-1.

As to `COc1ccc(C(=O)NC(C(=O)NCC2CCN(C(C)C)CC2)c2ccccc2I)cc1` (stereo not drawn), in assay [1], the K ass was 4.1e+06 l M-1.

Take `COc1ccc(C(=O)NC(C(=O)NCC2CCN(C(C)C)CC2)c2cccs2)cc1` (stereo not drawn): in assay [1], the K ass was 1.1e+06 l M-1.

For `COc1ccc(C(=O)NC(C(=O)NCC2CCN(C(C)C)CC2)c2ccccc2F)cc1` (stereo not drawn), the K ass in assay [1] is 2e+06 l M-1.

With `COc1ccc(C(=O)NC(C(=O)NCC2CCN(C(C)C)CC2)c2ccccc2C)cc1` (stereo not drawn), in assay [1], the K ass is 2.5e+06 l M-1.
